Test results reported in patent publication US20230302104A1, “TREATMENT AND/OR PREVENTION OF A DISEASE OR A SYNDROME RELATED TO A VIRUS INFECTION” (priority 2020, published 2023).

Test system: SARS-CoV pseudovirus entry in ACE2 overexpressing A549 human lung alveolar basal epithelium cells
Assay type: cell-based

Substance: rhAAT
- SARS-CoV pseudovirus entry: inhibits viral entry of several viruses
